This note sets out measurements from a melting point compilation (Tetko et al.; mined from patent text by program, amines drawn as free bases though some values may be those of a salt).

In turn, `CCOCCn1c(C)nc2c(N)ncc(C)c21` returned a melting point of 129 to 130 °C.
Next, `CC(=NC(=Nc1ccccc1)N1CCOCC1)NC(C)C`: 142 to 145 °C.
Next, `Clc1nc(N2CCOCC2)nc(N2CCOCC2)n1`: 174 °C.
Take `OCCCCc1ccc(OCc2coc(/C=C/c3ccccc3)n2)cc1`: the melting point is 90 to 91 °C.
Next, `CC(NC(=O)C(O)c1cc(F)cc(F)c1)C(=O)Nc1ccc2c(c1)NC(=O)Cc1cccn1-2` (centres undefined): 239 to 240 °C; `CC(C)N(CCC(CCN(C(C)C)C(C)C)(C(N)=O)c1ccccc1C(F)(F)F)C(C)C`: 131 to 132 °C.
Next, `Nc1c([N+](=O)[O-])cc(C(F)(F)F)cc1[N+](=O)[O-]`: 142 to 144 °C; `CCOC(=S)c1cnc(Cc2ccccc2)nc1N`: 117 to 118 °C; `CC(SC1COC(c2ccc(C(=O)Nc3ccc(Cl)cc3)cc2)OC1)C(O)(Cn1cncn1)c1ccc(F)cc1F` (centres undefined): 210 °C.
In the case of `c1ccc(N2CCN(CCCc3cccnc3)CC2)nc1` it was 51 to 52 °C; in that of `O=C(O)c1cc(-c2ccccc2)c2ccccc2n1`, 170 to 171 °C; in that of `O=C(O)C(Cc1ccccc1)Oc1ccc2cc(-c3csc(-c4ccccc4)n3)ccc2c1Br` (centres undefined), 220 to 224 °C.
`N#Cc1ccc(-c2ccc(N3CCCNC3=O)cc2)cc1` registered a melting point of more than 200 °C.
Next, `CCOC(=O)NC1CCN(Cc2ccccc2)CC1`: 100 °C; `CC(=O)Nc1ccc(C(C)=O)c2c1OCCO2`: 142 to 144 °C.
In the case of `Cc1ccc(C(=O)OCC2OC(n3cc(C#C[Si](C)(C)C)c(=O)[nH]c3=O)CC2F)cc1` (centres undefined) it was 130 °C; in that of `Cc1cc(C)cc(-c2nc3ccc(O)cc3n2Cc2ccccc2CBr)c1`, 213 °C.
In the case of `C#CCNC(=O)c1ncn2c1CN(C)C(=O)c1cc(F)ccc1-2` it was 205 to 206 °C; in that of `O[C@H]1c2cc(Oc3ccc4ccccc4n3)ccc2OC[C@H]1Oc1cccnc1` (relative stereo), 112 to 114 °C.
`CCCCCCCCCCC(Cn1ccnc1)SCCCC` (centres undefined) came in with a melting point of 95 to 97 °C.
Next, `CCOc1nn(-c2ccc(C(F)(F)F)cc2)cc1CCCOc1ccc(CCC(=O)O)cc1OC`: 125 to 126 °C.
Molecule `O=Cc1ccc(C#Cc2cc3ncnc(Nc4ccc(OCc5cccc(F)c5)c(Cl)c4)c3s2)o1` yielded a melting point of 229 °C.
Next, `N=C(O[C@@H]1CCCC=C1Cl)C(Cl)(Cl)Cl`: 78 to 79 °C; `CC(C)c1ccc(-c2cnc(-c3cccc(C(=O)O)c3)o2)cc1`: 150 to 153 °C.
Next, `CCn1c(=O)c2c(nc(/C=C/c3cccc(O)c3O)n2C)n(CC)c1=O`: 242 to 244 °C; `Cc1ccc(S(=O)(=O)Oc2c(-c3ccc(S(C)(=O)=O)cc3)cnn(-c3cccc(Cl)c3)c2=O)cc1`: 198 to 200 °C.
Next, `Cn1c(CN2C(=O)C3(COc4cc5c(cc43)OCCO5)c3ccccc32)nc2ccccc21` (centres undefined): more than 240 °C; `CC(=O)Oc1ccc(C(=O)Oc2ccc(C(=O)O)cc2)cc1C12CC3CC(CC(C3)C1)C2`: 264 to 265 °C; `CCC(=O)Nc1cc(-c2ccnc(Nc3cccc(Cl)c3)n2)ccn1`: 215 to 216 °C.
Molecule `Cc1nc(SC(=N)N)[nH]c1C` yielded a melting point of 283 to 285 °C.
In turn, `CC1CN(c2cc3c(cc2F)c(=O)c(C(=O)O)c2n3C(C)S2)CCN1C` (centres undefined) registered a melting point of 198 to 201 °C.
For the molecule `Cc1cc(C)c(COc2cccc3c2C(=O)c2c(Cl)ccc(Cl)c2C3=O)c(C)c1`, the melting point was 216 to 218 °C.
In the case of `CC(=O)Nc1nc(CN2CCC(c3c[nH]c4ccccc34)CC2)cs1` it was 204 to 207 °C; in that of `CCC(=O)OCC1(C)OCC2(CO1)COC(C)(COC(=O)CC)OC2` (centres undefined), 55 to 56 °C.
Next, `c1ccc(N=C2N=C(c3ccccc3)N=C2Nc2ccccc2)cc1`: 201 °C; `O=C(O)c1cccc(S(=O)(=O)CCO)c1[N+](=O)[O-]`: 178 to 181 °C; `CCCCC(CC)COC(=O)c1cc(CN(CC(=O)O)CC(=O)O)c(O)c(CN(CC(=O)O)CC(=O)O)c1` (centres undefined): 133 to 141 °C.
In the case of `c1ccc(-c2cccc3c2CCN(Cc2c[nH]c4ncccc24)C3)cc1` it was 202 to 204 °C.
The molecule `CCCc1c(O)ccc2oc(Cc3ccc(OC)cc3)c(C)c12` displayed a melting point of 91 to 93 °C.
In the case of `COc1ccc(C2=NN(C3CCN(C(=O)CN4CCN(C)CC4)CC3)C(=O)C(C)(C)C2)c2c1OC(C)(C)C2` it was 121 to 123 °C; in that of `CCOC(=O)c1csc(-n2ccnc2)n1`, 107 to 109 °C.
In the case of `CC(C)CC1(CC(=O)NO)C(=O)N(CCc2ccccc2)C(=O)N1C` (centres undefined) it was 127 to 129 °C; in that of `CCOC(=O)c1c(-c2ccccc2C)c2cc(C)c(Cl)cc2[nH]c1=O`, 290 to 291 °C.
In the case of `O=C1CCN(Cc2cccnc2)C(=O)C1=C1SC=CS1` it was 132 to 133 °C.
Consider `N#Cc1cccc(Oc2ncccc2O)c1`, for which the melting point was in the range of 130 to 133 °C.
Next, `CN1C(=O)C(c2ccc(OC(F)F)cc2)(c2cccc(CCCCC#N)c2)N=C1N` (centres undefined): 65 °C; `CC(C)(S)CNC(=O)CCCC(=O)O`: 101 to 104 °C; `COc1cccc2cc(CCl)oc12`: 44.5 to 45 °C.
Next, `CS(=O)(=O)c1cc(CCC(=O)O)cc(-c2nc(=O)c3ccccc3s2)n1`: 306 °C; `O=C(c1ccc(=O)[nH]c1)n1ccnc1`: 200 °C; `NS(=O)(=O)c1ccc(-n2nc(C(F)F)cc2-c2nc3ccccc3s2)cc1`: 247 to 249 °C.
On to `CCNC(=O)CN(c1c(Cc2c(F)cccc2F)cccc1OC)S(=O)(=O)c1ccc(OC)c(OC)c1`, for which the melting point was 180 °C.
In the case of `C#CCn1c(=O)sc2cc(F)c(-n3c(=O)cc(C(F)(F)F)[nH]c3=O)cc21` it was 224 to 227 °C.
In the case of `CCOc1ccc(N2CCN(c3c(C)c4c(c(OCC)c3C)OC(C)C4)CC2)cc1` (centres undefined) it was 121 to 122 °C; in that of `CCC1(CCCCN2CCN(c3ccc(OC)cc3)CC2)C(=O)Nc2ccccc21` (centres undefined), 109 to 110 °C; in that of `CCn1c(CCO)nc(C(C)C)c1Sc1cc(Cl)cc(Cl)c1`, 80 to 81 °C.
Next, `CC(C)CC(=O)OC1(C(=O)CO)CCC2C3CC(C)C4=CC(=O)C=CC4(C)C3C(O)CC21C` (centres undefined): 164 °C; `C[C@H]1Oc2ccc(F)cc2NC(=O)[C@H]1NC(=O)OC(C)(C)C`: 141 to 148 °C.
In turn, `CCCc1c(CSc2nnc(SCCCCCC(=O)O)s2)ccc(C(C)=O)c1O` came in with a melting point of 67 to 74 °C.
Next, `C[Si](C)(c1ccccc1)C1CC(=O)c2c(nc3ccccc3c2N)C1` (centres undefined): 178 to 180 °C; `COC(=O)C1CCC2C3CCC4=CC(O)CCC4(C)C3C(=O)CC12C` (centres undefined): 121 to 125 °C.
In the case of `COC(=O)C12CC(C(=O)OC)(C1)C2` it was 92 °C; in that of `Cn1cc(Br)c(=O)c(-c2ccccc2)c1`, 195 to 197 °C.
In the case of `CN1C(=O)C(c2ccc[nH]2)=C(c2cn(C(=O)OC(C)(C)C)c3ccccc23)C1=O` it was 82 to 83 °C; in that of `O=C(Nc1cccnn1)N1CCN(c2nccc(-c3cccc(F)c3F)n2)CC1`, 248 to 249 °C.
Consider `CN1CCN(c2ccc(Nc3ncc4ccc(-c5ccc(S(C)(=O)=O)cc5)n4n3)cc2F)CC1`, for which the melting point was determined as 227 °C.
In the case of `COC(=O)C1CC(=O)n2c3c(c4cc(F)ccc42)CCNC31` (centres undefined) it was 172 °C; in that of `O=C1c2ccccc2C(=O)N1Cc1ccncc1`, 164 to 165 °C.
Next, `CCOCCNC(=O)n1cc(F)c(=O)[nH]c1=O`: 134 to 135 °C.
In the case of `CC1CCN(c2cc3nc(C(C)(C)C)sc3cc2NC(=S)Oc2ccccc2)CC1` it was 201 to 205 °C.
On to `N#Cc1cnc2sc(-c3ccccc3)cc2c1Nc1ccc2[nH]ccc2c1`, for which the melting point was more than 245 °C.
In the case of `CN1CCC(=C2c3ccc(Cl)cc3CC(=O)c3sccc32)CC1` it was 150 to 151 °C; in that of `CC(CO)(CO)NS(=O)(=O)c1cc([N+](=O)[O-])c(Cl)s1`, 133 °C; in that of `COc1cc2c(cc1OC)C(=O)c1cc3ccccc3cc1C2=O`, more than 250 °C.
Next, `CCCOc1ccccc1-c1ccc(-c2nnn[nH]2)c(=O)[nH]1`: 229 to 231 °C; `COc1nc(C)c(CC2CC2)c(C(O)c2cc(Cl)cc(C#N)c2)c1C(C)C` (centres undefined): 237 to 238 °C; `CSc1nc(-c2ccc(C(F)(F)F)cc2)c2cc(C)sc2n1`: 113 °C.
In the case of `Nc1cccc(-c2nc(-c3cccnc3)no2)c1` it was 161 to 163 °C; in that of `CCCc1nncn1-c1ccc(O)cc1`, 176 °C; in that of `COc1ccc(C=C2SC(=O)NC2=O)cc1C(=O)NCc1ccc(C(F)(F)F)cc1`, 210 to 212 °C.
`CCOCc1nc2c(N)nc3cc(OCc4nc5ccccc5s4)ccc3c2n1CC(C)(C)NS(C)(=O)=O` came in with a melting point of 258 to 259 °C.
In the case of `CN(CC(CCOS(C)(=O)=O)c1ccc(Cl)c(Cl)c1)C(=O)c1ccccc1` (centres undefined) it was 100 to 102 °C; in that of `O=c1[nH]c2cc(Cl)ccc2c(=O)n1S(=O)(=O)c1cccc2cccnc12`, 284 to 286 °C.
Molecule `N#Cc1ccc(N2C(=O)[C@@H]3[C@H](O)CCN3C2=O)c2c1OCCO2` registered a melting point of 196 to 197 °C.
In the case of `Cc1sc2c(c1C)C(c1ccc(Cl)cc1)=NC(CC(=O)N1CCOCC1)c1nnc(C)n1-2` (centres undefined), the melting point is 252 to 254 °C.
For `COc1cc(Cc2cnc(N)nc2N)cc(OC)c1-n1cccc1`, the melting point worked out at 220 °C.
Next, `CCCCOC(=O)NNc1n[nH]c2cc(Cl)ccc12`: 150 to 152 °C.
`O=C(CCCC(c1cc(F)ccc1F)S(=O)(=O)c1ccc(Cl)cc1)N1CCCC1` (centres undefined): the melting point is 125 to 126 °C.
For `CC(C)N1CC(C(S)Oc2cccc3cnccc23)OC1=O` (centres undefined), the melting point fell in the range of 237 to 239 °C.

As a reminder, the melting point is the temperature, or range, at which the solid turns liquid.
